Here are results for 21 compounds from PubChem BioAssay (NCI).

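Step 1: Grow cells in 96-well plates. Step 2: Expose to compound for 48 hours at 5 concentrations. Step 3: Interpolate endpoints linearly; if unreached, use highest concentration. At the GI50, growth is halved. TGI denotes the concentration required for complete inhibition of growth.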

Test systems include SN12C renal; U251 CNS; K-562 leukemia; DMS 273 small cell lung; UACC-257 melanoma; M19-MEL melanoma; SF-268 CNS; 786-0 renal; SNB-78 CNS; PC-3 prostate.
Common to all, as to experiment: inhibition of tumour cell growth, NCI panel, 48 h

As for `O=C1CCCC[C@H]1[C@H]1CCC[C@@H]([C@H]2CCCCC2=O)C1=O`, the TGI with SN12C renal, in the test with U251 CNS, in the test on K-562 leukemia, in the test on DMS 273 small cell lung, in the test on UACC-257 melanoma and in the test on M19-MEL melanoma was above 100 µM throughout. The TGI in the test on SF-268 CNS and in the test with 786-0 renal was above 100 µM throughout.
Regarding `O=C1OC2CCCC[C@@H]2C2C[C@]34CCCCC3[C@@H](C(=O)O4)C12` (stereo partly specified), the TGI in the test on SN12C renal, in the test with U251 CNS, in the test with K-562 leukemia, in the test on UACC-257 melanoma, in the test with M19-MEL melanoma and in the test with SF-268 CNS was above 100 µM each time. Besides, the TGI in the test with SNB-78 CNS and with 786-0 renal was above 100 µM each time.
As to `CCN(CC)c1ccc(N=Nc2ccc(-c3nc4ccc[n+](C)c4s3)cc2)cc1`, the TGI in the test with SN12C renal was 16.2 µM; with U251 CNS, 27.1 µM; in the test on K-562 leukemia it was above 100 µM; in the test on DMS 273 small cell lung, 13.5 µM; in the test with UACC-257 melanoma, 24.1 µM; in the test on M19-MEL melanoma, 10.6 µM. The TGI was 48.9 µM in the test on SF-268 CNS, 31.6 µM in the test with SNB-78 CNS and 59.1 µM in the test on 786-0 renal.
Take `C=CC/C=C/C/C=C/CCCCCCCc1cccc(O)c1C(=O)O`: the TGI in the test with U251 CNS is 46 µM; in the test on K-562 leukemia, above 100 µM; in the test on DMS 273 small cell lung, above 100 µM; in the test on UACC-257 melanoma, above 100 µM; with M19-MEL melanoma, above 100 µM; in the test on SF-268 CNS, 80.8 µM. For the same compound, the TGI in the test with SNB-78 CNS and in the test on 786-0 renal was above 100 µM each time.
For `O=c1c2cc(Br)cc(Br)c2nc(CCCl)n1CCO`, the TGI in the test with SN12C renal, in the test on U251 CNS, with K-562 leukemia, with UACC-257 melanoma, in the test on M19-MEL melanoma and in the test with SF-268 CNS was above 100 µM throughout. In addition, the TGI with SNB-78 CNS and with 786-0 renal was above 100 µM throughout.
`C/C(CC(=O)NCCc1ccccc1)=N\NC(=O)C[n+]1ccccc1`: the TGI in the test on U251 CNS, with K-562 leukemia, in the test on DMS 273 small cell lung, with UACC-257 melanoma, in the test on M19-MEL melanoma and in the test with SF-268 CNS was above 100 µM throughout. Also, the TGI with SNB-78 CNS and in the test on 786-0 renal was above 100 µM each time.
`O=C1/C(=C/c2cccc([N+](=O)[O-])c2)COc2ccc(Br)cc21`: the TGI with U251 CNS, with K-562 leukemia, with DMS 273 small cell lung, with UACC-257 melanoma, in the test with M19-MEL melanoma and with SF-268 CNS was above 100 µM throughout. For the same compound, the TGI in the test on SNB-78 CNS and with 786-0 renal was above 100 µM in each case.
As for `NC(=O)NCc1c(C(N)=O)ncn1Cc1ccccc1`, the TGI with SN12C renal, in the test on U251 CNS, with K-562 leukemia, in the test with DMS 273 small cell lung, in the test with UACC-257 melanoma and in the test with M19-MEL melanoma was above 100 µM throughout. Further, the TGI with SNB-78 CNS and in the test with 786-0 renal was above 100 µM in each case.
Take `O=C1[C@@H]2C(c3ccccc3F)=NO[C@@H]2C(=O)N1c1ccc(Cc2ccc(N3C(=O)[C@H]4C(c5ccccc5F)=NO[C@H]4C3=O)cc2)cc1`: the TGI with SN12C renal, in the test with U251 CNS, with K-562 leukemia, with DMS 273 small cell lung, in the test on UACC-257 melanoma and in the test on M19-MEL melanoma was above 100 µM in each case. Further, the TGI in the test on SF-268 CNS, in the test with SNB-78 CNS and in the test with 786-0 renal was above 100 µM throughout.
In the case of `O=C(O)[C@H](NS(=O)(=O)c1ccc([N+](=O)[O-])cc1)c1ccccc1`, the TGI in the test with SN12C renal, in the test with U251 CNS, in the test with K-562 leukemia, in the test with DMS 273 small cell lung, with UACC-257 melanoma and in the test with M19-MEL melanoma was above 100 µM throughout. Further, the TGI in the test on SF-268 CNS, in the test with SNB-78 CNS and with 786-0 renal was above 100 µM each time.
As for `CN(C)c1cc[c]([Sn]([c]2ccc(N(C)C)cc2)([c]2ccc(N(C)C)cc2)[c]2ccc(N(C)C)cc2)cc1`, the GI50 in the test with SN12C renal is above 100 µM; in the test with U251 CNS, 8.02 µM; with K-562 leukemia it was 2.02 µM; in the test with DMS 273 small cell lung it was 4.76 µM; in the test on M19-MEL melanoma it was 5.17 µM; in the test on SF-268 CNS, 3.67 µM. The GI50 with SNB-78 CNS is 3.82 µM; in the test with 786-0 renal, 5.36 µM. Moreover, the TGI with SN12C renal is above 100 µM; with U251 CNS, 21.2 µM; in the test with K-562 leukemia, 7.33 µM; in the test with DMS 273 small cell lung, 16.4 µM; in the test on M19-MEL melanoma, 24.4 µM; in the test on SF-268 CNS, 25.4 µM. In addition, the values for the TGI with SNB-78 CNS and in the test with 786-0 renal were 11.5 µM and 19.3 µM, respectively.
Consider `Nc1ccn(C2CCC(CO)O2)c(=O)n1` (stereo unspecified), for which the GI50 with SN12C renal, in the test on U251 CNS, in the test with K-562 leukemia, in the test on UACC-257 melanoma and in the test with SF-268 CNS was above 1000 µM in each case. Besides, the TGI in the test with SN12C renal, in the test with U251 CNS, with PC-3 prostate, with K-562 leukemia, with UACC-257 melanoma and with SF-268 CNS was above 1000 µM throughout. Also, the figures for the TGI in the test on SNB-78 CNS and in the test on 786-0 renal were above 81.9 µM and above 1000 µM, respectively.
`O=C(Nc1c(Cl)cc([N+](=O)[O-])cc1Cl)C(=O)C(C1OC(=O)c2ccccc21)[N+](=O)[O-]` (stereo unspecified): the TGI in the test on SN12C renal, with U251 CNS, in the test on K-562 leukemia, with UACC-257 melanoma, in the test with M19-MEL melanoma and in the test on SF-268 CNS was above 100 µM throughout. Further, the TGI in the test with SNB-78 CNS and with 786-0 renal was above 100 µM in each case.
As to `C=C1C(=O)OC2/C=C(\COC(C)=O)CCC(OC(C)=O)C3=CC(OC3=O)C12` (stereo unspecified), the TGI in the test on SN12C renal turned out to be 18.9 µM; with U251 CNS, 33.9 µM; in the test with PC-3 prostate, 30.5 µM; in the test on K-562 leukemia, 7.63 µM; in the test on DMS 273 small cell lung it was 21.7 µM; with UACC-257 melanoma, 6.65 µM. Further, the TGI is 50 µM in the test on SF-268 CNS, 9.55 µM in the test with SNB-78 CNS and 20.9 µM in the test with 786-0 renal.
Regarding `N#CC1CC2(C1)OCCS2` (stereo unspecified), the TGI with SN12C renal, in the test with U251 CNS, in the test on K-562 leukemia, in the test with DMS 273 small cell lung, in the test on UACC-257 melanoma and in the test on SF-268 CNS was above 100 µM in each case. For the same compound, the TGI in the test with SNB-78 CNS and with 786-0 renal was above 100 µM throughout.
In the case of `CCCCCCCCCCCC(=O)OCC1OC(OC)C(NC(=O)N(CCCl)N=O)C(O)C1O` (stereo unspecified), the TGI was 29.5 µM in the test on SN12C renal; 26.1 µM in the test on U251 CNS; 31.1 µM in the test on K-562 leukemia; 30.6 µM in the test with DMS 273 small cell lung; 27.5 µM in the test on UACC-257 melanoma; above 100 µM in the test on M19-MEL melanoma. Besides, the TGI in the test on SF-268 CNS is 16.4 µM; with 786-0 renal, 10.4 µM.
As for `O=C(NCO)NCOCn1c(=O)n(CO)c(=O)n(CO)c1=O`, the TGI with SN12C renal is above 100 µM; in the test on U251 CNS, above 100 µM; in the test with K-562 leukemia, above 79.2 µM; in the test with UACC-257 melanoma, 99.4 µM; in the test with M19-MEL melanoma, above 66.3 µM; in the test with SF-268 CNS it was above 80.8 µM. Also, the TGI was above 73.9 µM in the test with SNB-78 CNS and above 100 µM with 786-0 renal.
With `O=C(c1ccccc1)C1OC12C(=O)Nc1ccccc12` (stereo unspecified), the TGI is above 100 µM in the test on SN12C renal; 24.3 µM in the test on K-562 leukemia; above 100 µM with DMS 273 small cell lung; above 100 µM in the test on UACC-257 melanoma; above 100 µM in the test on M19-MEL melanoma; above 100 µM in the test with SF-268 CNS. Moreover, the TGI in the test on SNB-78 CNS and in the test on 786-0 renal was above 100 µM throughout.
As for `COc1ccc(OC)c2c(C(=O)O)c(Cc3ccccc3)ccc12`, the TGI in the test on SN12C renal, in the test with U251 CNS, with K-562 leukemia, in the test on DMS 273 small cell lung, with UACC-257 melanoma and in the test on M19-MEL melanoma was above 100 µM each time. The TGI with SF-268 CNS and in the test on 786-0 renal was above 100 µM throughout.
On to `C1C[OH+]CC[OH+]CC[OH+]CC[OH+]CC[OH+]1.[Cl-].[V]`, for which the GI50 was above 100 µM in the test with SN12C renal; 50.4 µM in the test on U251 CNS; above 100 µM in the test with K-562 leukemia; 53 µM in the test on DMS 273 small cell lung; 29.3 µM with UACC-257 melanoma; 73.2 µM with SF-268 CNS. In addition, in the test with 786-0 renal, the GI50 is 19 µM. The TGI in the test with SN12C renal, in the test with U251 CNS, with K-562 leukemia, in the test on DMS 273 small cell lung, in the test with UACC-257 melanoma and in the test with SF-268 CNS was above 100 µM each time. Further, in the test with 786-0 renal, the TGI came out at 43.7 µM.
On to `CCOC(=O)NC(=O)c1cn(CCCOC(=O)CCCCCCCCCCC(=O)OCCCn2cc(C(=O)NC(=O)OCC)c(=O)[nH]c2=O)c(=O)[nH]c1=O`, for which the TGI in the test with SN12C renal, with U251 CNS, in the test on K-562 leukemia, with UACC-257 melanoma, in the test on M19-MEL melanoma and with SF-268 CNS was above 100 µM in each case. Moreover, the TGI with SNB-78 CNS and in the test on 786-0 renal was above 100 µM in each case.
